The text below walks through data of patent US20240342292A1, “Compounds for the Degradation of EGFR Kinase” (BeiGene Switzerland GmbH, priority 2021, published 2024).

Several values for one entry are separate records, joined by “and”; a condition that tells them apart may be missing. Identical values can stand only once.

In one assay the test system is Del19/T790M/C797S EGFR. Put plainly: EGFR degradation HTRF assay in H1975-clone #28 (DTC) cells. The format is cell-based. Particulars: H1975 # 28 DTC (Del19/T790M/C797S), 16h treatment; for DC50: HTRF; for Dmax (%): maximum percentage of degradation. Put shortly: (§1)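 Cells carrying only lentiviral mutant EGFR, since endogenous alleles were removed by CRISPR, received compounds on day 2 for 16 h. Final concentrations ran from 10 uM down in 5-fold steps over 8 doses. After lysis, EGFR levels were quantified by HTRF and DC50 derived by curve fitting.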
(In general: In TR-FRET formats the signal depends on donor and acceptor labels being close together.)

For a further assay, the target named is T1, L858R/T790M/C797S EGFR (Homo sapiens, UniProt P00533, C797S/L858R/T790M).
T1 construct: expressed in transfected cells; host or cells: H1975 clone #25 (lentiviral over-expression, endogenous EGFR knocked out by sgRNA)
T1 sequence (P00533 25-1210 T790M/C797S/L858R): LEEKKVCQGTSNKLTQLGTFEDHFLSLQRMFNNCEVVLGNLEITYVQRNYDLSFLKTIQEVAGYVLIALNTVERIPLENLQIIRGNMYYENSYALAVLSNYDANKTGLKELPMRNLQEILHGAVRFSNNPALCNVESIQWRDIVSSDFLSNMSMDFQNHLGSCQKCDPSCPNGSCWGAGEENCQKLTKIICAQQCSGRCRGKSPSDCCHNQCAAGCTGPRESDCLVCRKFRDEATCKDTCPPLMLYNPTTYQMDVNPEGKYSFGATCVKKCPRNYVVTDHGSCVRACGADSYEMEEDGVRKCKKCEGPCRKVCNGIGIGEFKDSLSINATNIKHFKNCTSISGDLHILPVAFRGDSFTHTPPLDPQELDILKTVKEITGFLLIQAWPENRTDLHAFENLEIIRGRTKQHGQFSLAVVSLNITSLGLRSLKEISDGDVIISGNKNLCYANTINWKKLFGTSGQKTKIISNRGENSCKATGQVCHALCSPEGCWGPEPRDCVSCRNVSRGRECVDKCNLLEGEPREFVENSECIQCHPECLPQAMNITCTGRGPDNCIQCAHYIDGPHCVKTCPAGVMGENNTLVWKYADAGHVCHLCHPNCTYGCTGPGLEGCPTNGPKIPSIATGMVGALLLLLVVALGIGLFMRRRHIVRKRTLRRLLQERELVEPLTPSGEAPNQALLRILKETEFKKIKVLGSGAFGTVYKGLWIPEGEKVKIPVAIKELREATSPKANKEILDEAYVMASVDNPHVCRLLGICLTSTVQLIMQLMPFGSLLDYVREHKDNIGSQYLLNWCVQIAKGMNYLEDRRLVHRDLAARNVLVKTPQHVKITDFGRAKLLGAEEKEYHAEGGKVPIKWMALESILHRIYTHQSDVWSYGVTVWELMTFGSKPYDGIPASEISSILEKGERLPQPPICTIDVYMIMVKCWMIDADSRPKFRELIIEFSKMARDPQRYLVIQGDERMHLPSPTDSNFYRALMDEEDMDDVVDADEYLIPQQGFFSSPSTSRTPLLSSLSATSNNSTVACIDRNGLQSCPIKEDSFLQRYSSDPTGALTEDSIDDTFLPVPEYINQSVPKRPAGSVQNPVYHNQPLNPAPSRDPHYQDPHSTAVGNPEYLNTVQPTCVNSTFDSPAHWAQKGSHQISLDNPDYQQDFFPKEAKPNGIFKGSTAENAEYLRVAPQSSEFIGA
Put plainly: EGFR degradation HTRF assay in H1975-clone #25 (LTC) cells. The format is cell-based. The note with it: 16h treatment; for DC50: HTRF; for Dmax: NCI-H1975, H1975 # 25-LTC (L858R/T790M/C797S). In outline: as §1

Where [1] appears, read: H1975 # 25-LTC (L858R/T790M/C797S).
Setting [2] is: maximum percentage of degradation.

The DC50 is the concentration at which degradation of the target reaches its halfway point. Read a high DC50 as degradation only at high concentration. A word on the Dmax: it is the largest share of the target that was removed. With `Cc1cc2cc(n1)-c1cnn(C)c1OCCC[C@@H](C)CN1/C(=N/C2=O)Nc2ccc(C(=O)N[C@@H]3CCN(CCc4cc(F)c([C@H]5CCC(=O)NC5=O)c(F)c4)CC3(F)F)cc21` [Example 260, (R,E)-N—((R)-1-(4-((R)-2,6-dioxopiperidin-3-yl)-3,5-difluorophenethyl)-3,3-difluoropiperidin-4-yl)-1,2^6,7-trimethyl-3-oxo-5^2,5^3-dihydro-1^1H,5^1H-11-oxa-4-aza-5(2,1)-benzo[d]imidazola-2(2,4)-pyridina-1(4,5)-pyrazolacycloundecaphane-5^6-carboxamide], the figures for the DC50 in the assay with Del19/T790M/C797S EGFR and on L858R/T790M/C797S EGFR (setting [1]) were 0.633 nM and 0.544 nM, respectively. Further, in the assay on Del19/T790M/C797S EGFR, the “Dmax (%)” value turned out to be 86.51%. For the same molecule, the Dmax on L858R/T790M/C797S EGFR (setting [2]) is 94%.
Take `Cc1cc2cc(n1)-c1cnn(C)c1OCCC[C@@H](C)CN1/C(=N/C2=O)Nc2ccc(C(=O)N[C@@H]3CCN(CCc4cc(F)c([C@H]5CCC(=O)NC5=O)c(F)c4)C[C@H]3F)cc21` [Example 345, (R,E)-N—((3R,4R)-1-(4-((R)-2,6-dioxopiperidin-3-yl)-3,5-difluorophenethyl)-3-fluoropiperidin-4-yl)-1^1,2^6,7-trimethyl-3-oxo-5^2,5^3-dihydro-1^1H,5^1H-11-oxa-4-aza-5(2,1)-benzo[d]imidazola-2(2,4)-pyridina-1(4,5)-pyrazolacycloundecaphane-5^6-carboxamide]: the DC50 with Del19/T790M/C797S EGFR was 0.662 nM and 0.7 nM; at L858R/T790M/C797S EGFR (setting [1]), 0.634 nM and 0.6 nM. In addition, the “Dmax (%)” value is 74.46% and 74.5% with Del19/T790M/C797S EGFR; 92.5% at L858R/T790M/C797S EGFR (H1975 # 25-LTC (L858R/T790M/C797S), maximum percentage of degradation). Moreover, the Dmax at L858R/T790M/C797S EGFR (setting [2]) worked out at 92.5%.
On to `Cc1cc2cc(n1)-c1cnn(C)c1OCCC[C@@H](C)CN1/C(=N/C2=O)Nc2ccc(C(=O)OC3CCN(CCc4cc(F)c([C@H]5CCC(=O)NC5=O)c(F)c4)CC3)cc21` [Example 313, 1-(4-((R)-2,6-dioxopiperidin-3-yl)-3,5-difluorophenethyl)piperidin-4-yl (R,E)-1^1,2^6,7-trimethyl-3-oxo-5^2,5^3-dihydro-1^1H,5^1H-11-oxa-4-aza-5(2,1)-benzo[d]imidazola-2(2,4)-pyridina-1(4,5)-pyrazolacycloundecaphane-5^6-carboxylate], for which, in the assay with Del19/T790M/C797S EGFR, half-maximal degradation (DC50) was put at 0.967 nM and the “Dmax (%)” value is 70.56%. Further, half-maximal degradation on L858R/T790M/C797S EGFR (setting [1]) (DC50) was put at 1.25 nM. The molecule further showed a Dmax on L858R/T790M/C797S EGFR (setting [2]) of 81%.
The matching figures for `Cc1cc2cc(n1)-c1cnn(C)c1OCCC[C@@H](C)CN1/C(=N/C2=O)Nc2ccc(C(=O)N[C@@H]3CCN(CCc4cc(F)c([C@H]5CCC(=O)NC5=O)c(F)c4)C[C@@H]3F)cc21` [Example 246, (R,E)-N-((3S,4R)-1-(4-((R)-2,6-dioxopiperidin-3-yl)-3,5-difluorophenethyl)-3-fluoropiperidin-4-yl)-1^1,2^6,7-trimethyl-3-oxo-5^2,5^3-dihydro-1^1H,5^1H-11-oxa-4-aza-5(2,1)-benzo[d]imidazola-2(2,4)-pyridina-1(4,5)-pyrazolacycloundecaphane-5^6-carboxamide]: 0.602 nM, 85.73%, 0.613 nM and 93.8%.
On to `Cc1cc2cc(n1)-c1cnn(C)c1OCCC[C@@H](C)CN1/C(=N/C2=O)Nc2ccc(N3CCN(C4CCN(c5cc(F)c([C@H]6CCC(=O)NC6=O)c(F)c5)CC4)CC3)cc21` [Example 324, (R)-3-(2,6-difluoro-4-(4-(4-((R,E)-1^1,26,7-trimethyl-3-oxo-5^2,5^3-dihydro-1^1H,5^1H-11-oxa-4-aza-5(2, 1)-benzo[d]imidazola-2(2,4)-pyridina-1(4,5)-pyrazolacycloundecaphane-5^6-yl)piperazin-1-yl)piperidin-1-yl)phenyl)piperidine-2,6-dione], for which, in the assay on Del19/T790M/C797S EGFR, half-maximal degradation (DC50) was put at 0.859 nM and the “Dmax (%)” value turned out to be 78.7%. This molecule also came in with a DC50 at L858R/T790M/C797S EGFR (setting [1]) of 1.02 nM. The same molecule gave a Dmax on L858R/T790M/C797S EGFR (setting [2]) of 91.1%.
For the molecule `Cc1cc2cc(n1)-c1cnn(C)c1OCCC[C@@H](C)CN1/C(=N/C2=O)Nc2ccc(C(=O)N[C@H]3CCN(CCc4cc(F)c([C@H]5CCC(=O)NC5=O)c(F)c4)C[C@H]3F)cc21` [Example 343, (R,E)-N—((3R,4S)-1-(4-((R)-2,6-dioxopiperidin-3-yl)-3,5-difluorophenethyl)-3-fluoropiperidin-4-yl)-1^1,2^6,7-trimethyl-3-oxo-5^2,5^3-dihydro-1^1H,5^1H-11-oxa-4-aza-5(2,1)-benzo[d]imidazola-2(2,4)-pyridina-1(4,5)-pyrazolacycloundecaphane-5^6-carboxamide], the DC50 in the assay on Del19/T790M/C797S EGFR was 0.609 nM; on L858R/T790M/C797S EGFR (setting [1]), 0.599 nM. In the assay on Del19/T790M/C797S EGFR, the “Dmax (%)” value is reported as 76.11%. The Dmax on L858R/T790M/C797S EGFR (setting [2]) was determined as 90.5%.
With `Cc1cc2cc(n1)-c1cnn(C)c1OCCC[C@@H](C)CN1/C(=N/C2=O)Nc2ccc(C(=O)N[C@@H]3CCN(CCc4cc(F)c([C@H]5CCC(=O)NC5=O)c(F)c4)CC3(C)C)cc21` [Example 263, (R,E)-N—((R)-1-(4-((R)-2,6-dioxopiperidin-3-yl)-3,5-difluorophenethyl)-3,3-dimethylpiperidin-4-yl)-1^1,2^6,7-trimethyl-3-oxo-5^2,5^3-dihydro-1H,5^1H-11-oxa-4-aza-5(2,1)-benzo[d]imidazola-2(2,4)-pyridina-1(4,5)-pyrazolacycloundecaphane-5^6-carboxamide], the values for the DC50 in the assay on Del19/T790M/C797S EGFR and at L858R/T790M/C797S EGFR (setting [1]) were 0.597 nM and 0.351 nM, respectively. The “Dmax (%)” value with Del19/T790M/C797S EGFR is 78.67%. This molecule also showed a Dmax at L858R/T790M/C797S EGFR (setting [2]) of 93.6%.
As to `Cc1cc2cc(n1)-c1cnn(C)c1OCCC[C@@H](C)CN1/C(=N/C2=O)Nc2ccc(C(=O)N(C)[C@@H]3CCCN(CCc4cc(F)c([C@H]5CCC(=O)NC5=O)c(F)c4)CC3)cc21` [Example 292, (R,E)-N—((R)-1-(4-((R)-2,6-dioxopiperidin-3-yl)-3,5-difluorophenethyl)azepan-4-yl)-N,1^1,2^6,7-tetra methyl-3-oxo-5^2,5^3-dihydro-1^1H,5^1H-11-oxa-4-aza-5(2,1)-benzo[d]imidazola-2(2,4)-pyridina-1(4,5)-pyrazolacycloundecaphane-5^6-carboxamide], the DC50 in the assay with Del19/T790M/C797S EGFR stood at 0.608 nM; at L858R/T790M/C797S EGFR (setting [1]), 0.514 nM. The “Dmax (%)” value with Del19/T790M/C797S EGFR is given as 85.48%. At L858R/T790M/C797S EGFR (setting [2]), this molecule came in with a Dmax of 89.4%.
For the molecule `Cc1cc2cc(n1)-c1cnn(C)c1OCCC[C@@H](C)CN1/C(=N/C2=O)Nc2ccc(N3CCN(CC4CN(c5cc(F)c([C@H]6CCC(=O)NC6=O)c(F)c5)C4)[C@@H](C#N)C3)cc21` [Example 423, (R)-1-((1-(4-((R)-2,6-dioxopiperidin-3-yl)-3,5-difluorophenyl)azetidin-3-yl)methyl)-4-((R,E)-1^1,2^6,7-trimethyl-3-oxo-5^2,5^3-dihydro-1^1H,5^1H-1l-oxa-4-aza-5(2,1)-benzo[d]imidazola-2(2,4)-pyridina-1(4,5)-pyrazolacycloundecaphane-5^6-yl)piperazine-2-carbonitrile], in the assay with Del19/T790M/C797S EGFR, the DC50 is 0.655 nM and the “Dmax (%)” value turned out to be 67.20%. Further, the DC50 on L858R/T790M/C797S EGFR (setting [1]) came to 1.41 nM. This molecule registered a Dmax at L858R/T790M/C797S EGFR (setting [2]) of 78.8%.
